Source: patent US20160355530A1, “HEPATITIS C INHIBITORS AND USES THEREOF” (AbbVie Inc., priority 2010, published 2016)
Where two headings read alike, the source gives them in different places.

Columns and labels:
[1] = test system: chimeric replicon with genotype 2b NS5B; test: microbe, parasite or virus in culture; format: cell-based, HCV genotype 2b; settings: Hepatitis C virus, read-out: 2b chimera 5% FBS EC50
[2] = test system: HCV 1a-H77-C316Y transient subgenomic replicon in Huh-7 derived cell line; test: microbe, parasite or virus in culture; format: cell-based, HCV genotype 1a; settings: for EC50: Hepatitis C virus, Huh-7, read-out: Transient Replicon 1a H77-C316Y 5% FBS EC50; for Transient Replicon Fold Resistance C316Y/1a: ratio of transient replicon EC50s, C316Y / 1a H77
Summary of the method: (§1)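 Transient format: T7-transcribed replicon RNA lacking Neo, electroporated into Huh-7-derived cells (5×10^3/well), input RNA checked by luciferase at 4 h. Three-fold compound dilution series, 0.5% DMSO, 4 days at 37° C; EC50 from luciferase signal in lysed cells.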

[3] = test system: HCV 1a-H77 transient subgenomic replicon in Huh-7 derived cell line; test: microbe, parasite or virus in culture; format: cell-based, HCV genotype 1a; settings: Hepatitis C virus, Huh-7; transient replicon, 5% FBS; read-out: Transient Replicon 1a H77 5% FBS EC50
Summary of the method: as §1

[4] = test system: HCV 1b-Con1 subgenomic replicon; test: Stable replicon cell culture assay (luciferase), 1b-Con1; 5% FBS, optionally 40% human plasma; format: cell-based, HCV genotype 1b; settings: Hepatitis C virus
[5] = test system: chimeric replicon with genotype 4a NS5B; test: microbe, parasite or virus in culture; format: cell-based, HCV genotype 4a; settings: Hepatitis C virus, read-out: 4a chimera 5% FBS EC50
[6] = test system: HCV 1a-H77 C316Y mutant subgenomic replicon; test: Stable replicon cell culture assay (luciferase), 1a-H77-C316Y mutant; format: cell-based, HCV genotype 1a; settings: for EC50: Hepatitis C virus, read-out: Stable Replicon 1a H77-C316Y 5% FBS EC50; for Stable Replicon Fold Resistance C316Y/1a: ratio of stable replicon EC50s, C316Y / 1a H77
[7] = test system: HCV 1a-H77 subgenomic replicon; test: microbe, parasite or virus in culture; format: cell-based, HCV genotype 1a; settings: Hepatitis C virus, stable replicon
[8] = molecular target: T1, HCV NS5B polymerase 1b Rice (Hepatitis C virus genotype 1b, UniProt Q9WMX2); test: HCV NS5B polymerase enzymatic inhibition assay, strain 1b Rice; format: biochemical, HCV genotype 1b; settings: enzyme
T1 construct: six-histidine tag; made in house; host or cells: E. coli
Experimental: Purified HCV NS5B polymerase enzymes were used for polymerase inhibition assays. All recombinant HCV polymerases contained the first 570 amino acids of the 591 amino acid native protein sequence and a six-histidine tag at the N-terminus or C-terminus to facilitate purification by affinity chromatography. The DNA nucleotide sequence for the HCV polymerase 1b BK strain was codon optimized for expression in E. coli. A synthetic gene was prepared from a series of overlapping oligonucleotides that were filled in using a DNA polymerase and amplified by PCR. The patient isolate HCV polymerases were cloned by RT-PCR methods using HCV RNA extracted from the serum of infected subjects obtained from ProMedDx and BioCollections (genotypes 2a, 2b, 3a, and 4a). Laboratory strains were cloned from plasmid DNA (1a-H77 or 1a-H77-C316Y) or from existing replicon cells (1b Rice). In all cases the amplified DNA was cloned into a protein expression vector (typically a pET vector from Novagen) and then multiple clones were sequenced to identify one whose NS5B sequence agreed with the population sequence. This sequence-confirmed clone was then transfected into E. coli for protein expression and purification. E. coli cultures were grown to a maximum optical density (OD) of 2-3 and then induced with 0.4 mM isopropyl beta-D-thiogalactopyranoside (IPTG) and grown for 20 hours at 20° C.
Proteins were purified using nickel affinity chromatography, and additional column steps were added including, ion exchange, size exclusion, hydrophobic ion, and poly-U affinity chromatography, as needed, depending on the sample being purified. The template RNA used in the polymerase enzymatic assay was a 2.1 kb construct that corresponds to the 3′-end of an HCV genotype 1b negative strand RNA.
The reaction was initiated by the addition of 20 μM CTP, 20 μM ATP, 0.284 μM (0.5 μCi) of 5,6-[^3H] UTP, 5 nM template RNA and 0.1 U/μL RNase inhibitor (RNasin, Promega), and allowed to proceed for three hours at 30° C. The final reaction volume was 50 μL. The reaction was terminated by the addition of 50 uL of 4 mM spermine in 10 mM Tris-HCl, pH 7.5, 1 mM EDTA. The quenched reaction was allowed to incubate for at least 15 minutes at room temperature, and then the precipitated RNA was captured by filtration through a glass fiber filter (GF/B, Millipore) in a 96 well format. The filter plate was washed five times with 200 μL of 2 mM spermine, 10 mM Tris-HCl, pH 8.0, 1 mM EDTA, and two times with ethanol. After drying thoroughly in air, 30 μL of Microscint-20 scintillation cocktail (Perkin Elmer) was added to each well, and the retained cpm were determined by scintillation counting. IC50 values were determined by nonlinear regression.
% Inhibition=100*[[I]/([I]+[IC50])] equation 1
V=kcat[S]/2(Km+[S])*(sqrt((IC50+I−E)̂2+(4*IC50*E))−(IC50+I−E)) equation 2

[9] = molecular target: T2, HCV NS5B polymerase 1b BK strain (Hepatitis C virus genotype 1b, UniProt P26663); test: HCV NS5B polymerase enzymatic inhibition assay, strain 1b BK; format: biochemical; settings: enzyme, strain 1b BK; read-out: HCV Polymerase Strain 1b BK IC50
T2 construct: six-histidine tag; made in house; host or cells: E. coli
T2 sequence (P26663 2420-2989): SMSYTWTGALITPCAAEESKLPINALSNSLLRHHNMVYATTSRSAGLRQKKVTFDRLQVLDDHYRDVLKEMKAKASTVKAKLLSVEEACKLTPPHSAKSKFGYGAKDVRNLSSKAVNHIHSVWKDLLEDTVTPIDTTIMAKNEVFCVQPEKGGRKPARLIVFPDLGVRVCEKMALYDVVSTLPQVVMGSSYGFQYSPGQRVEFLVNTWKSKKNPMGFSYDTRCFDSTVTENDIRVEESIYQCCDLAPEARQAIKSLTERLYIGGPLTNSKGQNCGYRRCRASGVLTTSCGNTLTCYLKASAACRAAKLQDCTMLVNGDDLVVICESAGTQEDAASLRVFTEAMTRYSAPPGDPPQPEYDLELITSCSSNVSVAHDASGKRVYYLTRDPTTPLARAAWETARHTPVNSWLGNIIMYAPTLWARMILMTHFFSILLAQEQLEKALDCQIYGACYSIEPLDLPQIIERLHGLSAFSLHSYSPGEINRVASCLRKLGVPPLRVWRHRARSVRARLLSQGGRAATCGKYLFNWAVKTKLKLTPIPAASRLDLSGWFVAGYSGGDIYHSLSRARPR
Summary of the method: (§2)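 Recombinant NS5B (residues 1–570, His-tagged, E. coli-expressed) copied 5 nM of a 2.1 kb HCV 1b negative-strand 3′-end RNA template with 20 μM CTP, 20 μM ATP and 0.284 μM [3H]UTP for 3 h at 30 °C. Spermine-precipitated RNA was filter-captured and counted, and IC50 was fitted by nonlinear regression.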

[10] = test system: chimeric replicon with genotype 3a NS5B; test: microbe, parasite or virus in culture; format: cell-based, HCV genotype 3a; settings: Hepatitis C virus, read-out: 3a chimera 5% FBS EC50
[11] = molecular target: T3, HCV NS5B polymerase 1a-H77-C316Y (Hepatitis C virus genotype 1a, UniProt P27958, C2736Y); test: biochemical; parameters: species or system HCV genotype 1a
T3 construct: six-histidine tag; made in house; host or cells: E. coli
T3 sequence (P27958 2421-2990 C2736Y): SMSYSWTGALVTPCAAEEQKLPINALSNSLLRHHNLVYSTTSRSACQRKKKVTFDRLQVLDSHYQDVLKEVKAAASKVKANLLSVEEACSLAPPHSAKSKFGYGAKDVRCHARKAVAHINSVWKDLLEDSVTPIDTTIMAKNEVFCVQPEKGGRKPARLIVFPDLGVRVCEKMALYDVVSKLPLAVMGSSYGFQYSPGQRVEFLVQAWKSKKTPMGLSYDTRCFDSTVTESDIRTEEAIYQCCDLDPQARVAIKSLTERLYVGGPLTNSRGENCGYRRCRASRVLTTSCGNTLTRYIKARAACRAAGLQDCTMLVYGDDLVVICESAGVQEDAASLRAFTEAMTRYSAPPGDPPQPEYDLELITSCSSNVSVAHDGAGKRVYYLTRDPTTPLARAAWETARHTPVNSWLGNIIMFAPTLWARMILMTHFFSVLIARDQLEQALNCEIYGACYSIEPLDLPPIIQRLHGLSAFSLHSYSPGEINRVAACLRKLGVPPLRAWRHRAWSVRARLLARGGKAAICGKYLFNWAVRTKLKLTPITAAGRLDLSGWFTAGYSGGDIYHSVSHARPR
Summary of the method: as §2

[12] = molecular target: T4, HCV NS5B polymerase 1a-H77 (Hepatitis C virus genotype 1a, UniProt P27958); test: biochemical; parameters: species or system HCV genotype 1a; settings: enzyme, strain 1a H77; read-out: HCV Polymerase Strain 1a H77 IC50
T4 construct: six-histidine tag; made in house; host or cells: E. coli
T4 sequence (P27958 2421-2990): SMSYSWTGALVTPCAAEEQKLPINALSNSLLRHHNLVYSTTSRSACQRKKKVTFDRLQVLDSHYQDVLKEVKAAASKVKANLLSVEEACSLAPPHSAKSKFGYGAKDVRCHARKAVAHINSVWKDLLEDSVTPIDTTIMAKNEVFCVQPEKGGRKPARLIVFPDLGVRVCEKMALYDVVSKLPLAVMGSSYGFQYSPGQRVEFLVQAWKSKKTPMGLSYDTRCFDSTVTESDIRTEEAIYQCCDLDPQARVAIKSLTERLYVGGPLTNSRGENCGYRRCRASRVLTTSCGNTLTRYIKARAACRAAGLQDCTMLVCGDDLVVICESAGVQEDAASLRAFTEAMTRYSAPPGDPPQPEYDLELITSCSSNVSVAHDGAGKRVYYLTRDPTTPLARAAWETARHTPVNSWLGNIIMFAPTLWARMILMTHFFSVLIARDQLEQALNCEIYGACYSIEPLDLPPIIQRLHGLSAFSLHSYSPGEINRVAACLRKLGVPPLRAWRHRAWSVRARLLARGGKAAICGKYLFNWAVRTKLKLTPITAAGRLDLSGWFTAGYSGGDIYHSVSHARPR
Summary of the method: as §2

[13] = test system: HCV NS5B polymerase 1a-H77-C316Y; test: biochemical; parameters: species or system HCV genotype 1a; settings: ratio of enzyme IC50s, 1a H77-C316Y / 1a H77
Summary of the method: as §2

[14] = test system: chimeric replicon with 2a-J6CF-derived NS5B; test: microbe, parasite or virus in culture; format: cell-based, HCV genotype 2a; settings: Hepatitis C virus, read-out: 2a chimera 5% FBS EC50
[15] = strain 1b Con1, 5% FBS + 40% human plasma, read-out: 1b Con1 5% FBS + 40% Human Plasma EC50
[16] = strain 1b Con1, 5% FBS, no human plasma, read-out: 1b Con1 5% FBS EC50
[17] = strain 1b Con1, 5% FBS, read-out: 1b Con1 5% FBS EC50
[18] = 5% FBS, absence of human plasma, read-out: Stable Replicon 1a H77 5% FBS EC50
[19] = strain 1a H77, 5% FBS + 40% human plasma, read-out: 1a H77 5% FBS + 40% Human Plasma EC50
[20] = strain 1a H77, 5% FBS, no human plasma, read-out: 1a H77 5% FBS EC50
[21] = strain 1a H77, 5% FBS, read-out: 1a H77 5% FBS EC50

Row | Compound | EC50 [2] [nM] | Transient Replicon Fold Resistance C316Y/1a [2] [fold] | EC50 [3] [nM] | EC50 [4, 15] [nM] | EC50 [4, 16] [nM] | EC50 [4, 17] [nM] | EC50 [5] [nM] | EC50 [6] [nM] | Stable Replicon Fold Resistance C316Y/1a [6] [fold] | EC50 [7, 18] [nM] | EC50 [7, 19] [nM] | EC50 [7, 20] [nM] | EC50 [7, 21] [nM] | IC50 [8] [nM] | IC50 [9] [nM] | IC50 [11] [nM] | IC50 [12] [nM] | C316Y/1a Fold Resistance [13] [fold] | further results
1 | CC(C)CCN(c1cc2oc(-c3ccc(Nc4ccccc4)cc3)c(-c3ncc[nH]3)c2cc1C1CC1)S(C)(=O)=O [Example 18, N-[2-(4-anilinophenyl)-5-cyclopropyl-3-(1H-imidazol-2-yl)-1-benzofuran-6-yl]-N-(3-methylbutyl)methanesulfonamide] | 0.3 | 0.4 | 0.7 | 602 | 9.5 | 9.5 | 9.4 | 3.8 | 0.711 | 5.4 | 234 | 5.4 | 5.4 | 30.4 | 85.6 | 101 | 25.8 | 4 | EC50 [1]: 13 nM; EC50 [10]: 12.3 nM
2 | COc1ccc(-c2nn3ccc(-c4cc(C(=O)NC5(c6ccccc6)CC5)ccc4C)cc3c2C2=NOCCN2)cc1 [Example 19, 3-[3-(5,6-dihydro-4H-1,2,4-oxadiazin-3-yl)-2-(4-methoxyphenyl)pyrazolo[1,5-a]pyridin-5-yl]-4-methyl-N-(1-phenylcyclopropyl)benzamide] | – | – | – | 86.8 | 6.7 | 6.7 | 20.2 | 1320 | 41.0 | 33.2 | 444 | 33.2 | 33.2 | 7.2 | 150 | 457 | 4 | 115 | EC50 [14]: 140 nM
3 | C=C(c1ccccc1)c1ccc(-c2oc3cc(N(CCC(C)C)S(C)(=O)=O)c(C4CC4)cc3c2-c2ncc[nH]2)cc1 [Example 167, N-{5-cyclopropyl-3-(1H-imidazol-2-yl)-2-[4-(1-phenylvinyl)phenyl]-1-benzofuran-6-yl}-N-(3-methylbutyl)methanesulfonamide] | 6.11 | 1 | 8.1 | – | – | – | – | – | – | – | – | – | – | 61.6 | 160 | 7900 | 49.2 | 161 | –
4 | COc1ccc(-c2nn3ccc(-c4cc(C(=O)NC5(c6ccccc6)CC5)ccc4C)cc3c2-c2ncc[nH]2)cc1 [Example 191, 3-[3-(1H-imidazol-2-yl)-2-(4-methoxyphenyl)pyrazolo[1,5-a]pyridin-5-yl]-4-methyl-N-(1-phenylcyclopropyl)benzamide] | – | – | – | – | – | – | 17.6 | – | – | – | – | – | – | 8.4 | – | – | 12 | – | –
